Key:
mouse = experiment: Single-dose oral toxicity in mouse; type: in vivo; conditions: 1 g/kg weight
Description: No toxicity is found even when the above-mentioned effective ingredient used in the present invention is administered in an effective dose for the exhibition of its action.

[1] = tested on: mature adipocytes (3T3-L1 cells); experiment: Enhancing action on glucose uptake: 2-deoxyglucose uptake into mature adipocytes; type: cell-based
Description: The induction of differentiation into mature adipocytes was carried out by partially modifying the method of Rubin C. S. et al. (JBC. 253 7570-7578, 1978). 3T3-L1 cells (ATCC CCL-92.1) were suspended in a 10% calf serum (manufactured by ICN)-containing Dulbecco's modified Eagle's medium (manufactured by Sigma, D6046) containing 200 μM ascorbic acid so as to have a density of 4×10^3 cells/mL, and the suspension was put in each well of a 12-well microtiter plate in an amount of 2 mL per well. The cells were cultured at 37° C. for 7 days in the presence of 5% carbon dioxide gas. On the seventh day, the medium was exchanged with […] of a 10% fetal bovine serum (manufactured by GIBCO)-containing Dulbecco's modified Eagle's medium containing 200 μM ascorbic acid, 0.25 μM dexamethasone, 10 μg/mL insulin (manufactured by TAKARA BIO INC.) and 0.5 mM 3-isobutyl-1-methylxanthine (manufactured by Nacalai Tesque, Inc., 19624-86). After 45 hours, the medium was exchanged with 2 mL of a 10% fetal bovine serum-containing Dulbecco's modified Eagle's medium containing 200 μM ascorbic acid and 5 μg/mL insulin. The medium was exchanged on after 2 days and 5 days, and the cells were cultured for 7 days, to give mature adipocytes.
As the evaluation of enhancing action on glucose uptake, and also as the evaluation of insulin-mimetic action, the amount of 2-deoxyglucose uptake into mature adipocytes stimulated with the sample in the adipocytes was determined.
After the termination of the culture, the medium was removed, and the cells were washed twice with a 0.1% (w/v) bovine serum albumin (manufactured by Sigma, A8022)-containing Dulbecco's modified Eagle's medium. Thereafter, 1 mL of the same medium was put to each well. The cells were cultured overnight at 37° C. in the presence of 5% carbon dioxide gas. After the overnight culture, the cells were washed twice with a HEPES buffered saline (140 mM NaCl, 5 mM KCl, 2.5 mM MgSO4, 1 mM CaCl2, 20 mM HEPES-Na (pH 7.4)), and 0.9 mL of the same buffer was added thereto. The cells were cultured at 37° C. for 75 minutes. […] […] Thereafter, 100 μL of a HEPES buffered saline containing 2-deoxy-[1,2-^3H(N)]-glucose (manufactured by PerkinElmer Life Sciences Inc., NET549A) and 1 mM 2-deoxyglucose (manufactured by Nacalai Tesque, Inc., 10722-11) was added thereto at a final concentration of 0.5 μCi/mL, and the cells were further cultured at 37° C. for 10 minutes. After the termination of the culture, the supernatant was removed, the cells were washed three times with a phosphate buffer cooled to 4° C., and 0.5 mL of a 1% Nonidet P-40-containing phosphate buffer was added to lyse the cells, whereby 2-deoxy-[1,2-^3H(N)]-glucose taken into the cells was eluted. The radioactivity was determined with a liquid scintillation counter LS6500 (manufactured by Beckmann) using 25 μL of the supernatant with Ultima Gold (manufactured by PerkinElmer Life Sciences Inc., 6013329) as a scintillation cocktail.

[2] = tested on: glucose transporter (mature adipocytes); experiment: Influence of cytochalasin B on 2-deoxyglucose uptake in mature adipocytes; type: cell-based; conditions: cytochalasin B 40 μM, in every group (polygodial 3 μM, insulin 1 μg/mL, negative control)
Description: Specifically, as a sample, there was set a group with addition of a dimethyl sulfoxide solution of polygodial so as to have a final concentration of 3 μM. […] Furthermore, in each group, there was set a group with addition of cytochalasin B (manufactured by Nacalai Tesque, Inc., 10435-81) so as to have a final concentration 40 μM at the same time as the time of addition of the sample and insulin. Thereafter, the amount of 2-deoxy-[1,2-^3H(N)]-glucose taken into the adipocytes was determined in the same manner.

3T3-L1 cells = experiment: Inducing action on differentiation into adipocytes: amount of triglyceride in the adipocytes; type: cell-based
Description: Induction of differentiation into adipocytes was carried out by partially modifying the above-mentioned method of Rubin C. S. et al. In addition, as a compound (P001), a compound prepared in Example 4 was used. 3T3-L1 cells were suspended in a 10% (w/v) calf serum-containing Dulbecco's modified Eagle's medium containing 200 μM ascorbic acid so as to have a density of 4×10^3 cells/mL, and the suspension was put in each well of a 12-well microtiter plate in an amount of 2 mL per well. The cells were cultured at 37° C. for 7 days in the presence of 5% carbon dioxide gas. On the seventh day, the medium was exchanged with a 10% fetal bovine serum-containing Dulbecco's modified Eagle's medium containing 200 μM ascorbic acid and 0.25 μM dexamethasone, and 4 μL of a 15 mM dimethyl sulfoxide solution of the compound (P001), a 5 mM dimethyl sulfoxide solution of the compound (P001), or a 1.5 mM dimethyl sulfoxide solution of the compound (P001) was added to each well. Here, there were set a group with addition of 4 μL of a 5 mg/mL aqueous solution of insulin as a positive control, and a group with addition of dimethyl sulfoxide as a negative control. After 48 hours, the medium was exchanged with a 10% fetal bovine serum-containing Dulbecco's modified Eagle's medium containing 200 μM ascorbic acid, and 4 μL of a 15 mM dimethyl sulfoxide solution of the compound (P001), a 5 mM dimethyl sulfoxide solution of the compound (P001), or a 1.5 mM dimethyl sulfoxide solution of the compound (P001), a group with addition of 2 μL of a 5 mg/mL aqueous solution of insulin as a positive control, or a group with addition of dimethyl sulfoxide as a negative control was put to each well. The cells were cultured for additional 7 days. Here, the medium was exchanged after 2 days and after 5 days, and at that time, 4 μL of a 15 mM dimethyl sulfoxide solution of the compound (P001), a 5 mM dimethyl sulfoxide solution of the compound (P001), or a 1.5 mM dimethyl sulfoxide solution of the compound (P001), a group with addition of 2 μL of a 5 mg/mL aqueous solution of insulin as a positive control, or a group with addition of dimethyl sulfoxide as a negative control was put to each well. […]
The amount of triglyceride in the adipocytes was determined as an index for inducing differentiation into mature adipocytes, and also as the evaluation of insulin-mimetic action.
After the termination of the culture, the medium was removed, and the cells were washed twice with a phosphate buffered saline. One milliliter of a solvent of hexane:isopropanol=3:2 was added to the cells. The mixture was allowed to stand at room temperature for 30 minutes, and thereafter the supernatant was collected. The procedures were repeated again, and 2 mL of the supernatant was concentrated to dryness. The precipitates were dissolved in 100 μL of isopropanol, and the amount of triglyceride contained in 10 μL of the solution was determined using a triglyceride E-test (manufactured by Wako Pure Chemical Industries, Ltd., code 432-40201). In addition, all the determinations were carried out twice.

[3] = final concentration 30 μM, 10 μM or 3 μM
[4] = final concentration 10 μM, 3 μM or 1 μM, FIG. 2, FIG. 3

SMILES: CC1(C)C[C@H]2C=C(C=O)[C@]3(C=O)C[C@]3(C)[C@H]2C1 [isovelleral]
- deaths after oral administration (mouse): no cases of deaths are found
- 2-deoxy-[1,2-3H(N)]-glucose uptake compared to the negative control ([1]; final concentration 3 μM or 1 μM, FIG. 24): enhancement of 2-deoxy-[1,2-^3H(N)]-glucose uptake was found

SMILES: C=C1[C@@H](C)[C@H]2[C@H](Cc3ccccc3)NC(=O)[C@]23OC(=O)/C=C/[C@H](O)CCC[C@@H](C)C/C=C/[C@H]3[C@@H]1O [cytochalasin B, reference compound]
- 2-deoxy-[1,2-3H(N)]-glucose uptake on addition of cytochalasin B [2]: almost completely inhibited

SMILES: COC(=O)C1=CCC2C(C)(C)CCCC2(C)C1C(=O)OC (stereo not shown) [P004, dimethyl 1,4,4a,5,6,7,8,8a-octahydro-5,5,8a-trimethyl-1,2-naphthalenedicarboxylate]
- deaths after oral administration (mouse): no cases of deaths are found
- 2-deoxy-[1,2-3H(N)]-glucose uptake compared to the negative control ([1]; final concentration 30 μM, 10 μM or 3 μM, FIG. 11): enhancement of 2-deoxy-[1,2-H(N)]-glucose uptake was found
- biosynthesis of triglyceride (index of differentiation into mature adipocytes) (3T3-L1 cells; final concentration 10 μM, 3 μM or 1 μM, FIG. 12): induction of biosynthesis of triglyceride was found

SMILES: CC(=O)OCC1=CCC2C(C)(C)CCCC2(C)C1C=O (stereo not shown) [P008, 2-[(acetyloxy)methyl]-1,4,4a,5,6,7,8,8a-octahydro-5,5,8a-trimethyl-1-naphthalenecarboxyaldehyde]
- deaths after oral administration (mouse): no cases of deaths are found
- biosynthesis of triglyceride (index of differentiation into mature adipocytes) (3T3-L1 cells; final concentration 10 μM or 3 μM, FIG. 20): induction of biosynthesis of triglyceride was found

SMILES: CC1(C)CCCC2(C)C1=CCC1=C2C(=O)OC1 (stereo not shown) [P003, 4,6,7,8,9,9a-hexahydro-6,6,9a-trimethyl-naphtho[1,2-c]furan-1(3H)-one]
- deaths after oral administration (mouse): no cases of deaths are found
- 2-deoxy-[1,2-3H(N)]-glucose uptake compared to the negative control ([1]; final concentration 30 μM or 10 μM, sample added at each exchange of BSA medium or HEPES buffered saline, FIG. 23): enhancement of 2-deoxy-[1,2-^3H(N)]-glucose uptake was found
- biosynthesis of triglyceride (index of differentiation into mature adipocytes) (3T3-L1 cells; [3]): induction of biosynthesis of triglyceride was found

SMILES: CC1(C)CCC[C@]2(C)[C@H](C=O)C(C=O)=CC[C@@H]12 [epipolygodial]
- deaths after oral administration (mouse): no cases of deaths are found
- 2-deoxy-[1,2-3H(N)]-glucose uptake compared to the negative control ([1]; final concentration 3 μM, 1 μM or 0.3 μM, FIG. 25): enhancement of 2-deoxy-[1,2-^3H(N)]-glucose uptake was found

SMILES: COC(=O)C1=C(C(=O)OC)C2(C)CCCC(C)(C)C2=CC1 (stereo not shown) [P001, dimethyl 3,5,6,7,8,8a-hexahydro-5,5,8a-trimethyl-1,2-naphthalenedicarboxylate]
- deaths after oral administration (mouse): no cases of deaths are found
- biosynthesis of triglyceride (index of differentiation into mature adipocytes) (3T3-L1 cells; [3]): induction of biosynthesis of triglyceride was found

SMILES: CC(=O)OCC1=CCC2C(C)(C)CCCC2(C)C1C=O (stereo not shown) [P007, 1-[(acetyloxy)methyl]-1,4,4a,5,6,7,8,8a-octahydro-5,5,8a-trimethyl-2-naphthalenecarboxyaldehyde]
- deaths after oral administration (mouse): no cases of deaths are found
- biosynthesis of triglyceride (index of differentiation into mature adipocytes) (3T3-L1 cells; [3]): induction of biosynthesis of triglyceride was found

SMILES: CC1(C)CCCC2(C)C1=CCC(CO)=C2CO (stereo not shown) [P002, 3,5,6,7,8,8a-hexahydro-5,5,8a-trimethyl-1,2-naphthalenedimethanol]
- deaths after oral administration (mouse): no cases of deaths are found
- biosynthesis of triglyceride (index of differentiation into mature adipocytes) (3T3-L1 cells; final concentration 30 μM or 3 μM, FIG. 7): induction of biosynthesis of triglyceride was found

SMILES: O=Cc1cc2ccccc2cc1C=O [naphthalene-2,3-dicarboxyaldehyde]
- deaths after oral administration (mouse): no cases of deaths are found
- 2-deoxy-[1,2-3H(N)]-glucose uptake compared to the negative control [1, 4]: enhancement of 2-deoxy-[1,2-^3H(N)]-glucose uptake was found

SMILES: CC(=O)O[C@@H]1C[C@@H]2[C@@]3(C)CCCC(C)(C)[C@@H]3CC[C@@]2(C)[C@@H]2CC=C(C=O)[C@H](C=O)[C@@]12C [12-epi-scalaradial]
- deaths after oral administration (mouse): no cases of deaths are found
- 2-deoxy-[1,2-3H(N)]-glucose uptake compared to the negative control [1, 4]: enhancement of 2-deoxy-[1,2-^3H(N)]-glucose uptake was found

SMILES: CC1(C)CCCC2(C)C(CO)C(CO)=CCC12 (stereo not shown) [P005, 1,4,4a,5,6,7,8,8a-octahydro-5,5,8a-trimethyl-1,2-naphthalenedimethanol]
- deaths after oral administration (mouse): no cases of deaths are found
- biosynthesis of triglyceride (index of differentiation into mature adipocytes) (3T3-L1 cells; final concentration 30 μM or 10 μM, FIG. 14): induction of biosynthesis of triglyceride was found

SMILES: CC1(C)CCCC2(C)C3COC(=O)C3=CCC12 (stereo not shown) [P006, 5,5a,6,7,8,9,9a,9b-octahydro-6,6,9a-trimethyl-naphtho[1,2-c]furan-3(1H)-one]
- deaths after oral administration (mouse): no cases of deaths are found
- biosynthesis of triglyceride (index of differentiation into mature adipocytes) (3T3-L1 cells; [3]): induction of biosynthesis of triglyceride was found

SMILES: CC1(C)CCCC2(C)C1CCC1(CO1)C2C/C=C(/C=O)CC=O (stereo not shown) [miogadial]
- deaths after oral administration (mouse): no cases of deaths are found
